c1ccc(OP2(Oc3ccccc3)=NP(Oc3ccccc3)(Oc3ccccc3)=NP(Oc3ccccc3)(Oc3ccccc3)=N2)cc1
Conditions	solubility (mole fraction)
in 2-ethoxyethanol, 298.15 K	0.0065
in 2-ethoxyethanol, 300.95 K	0.0074
in 2-ethoxyethanol, 303.25 K	0.0081
in 2-ethoxyethanol, 310.15 K	0.0106
in 2-ethoxyethanol, 314.55 K	0.0126
in 2-ethoxyethanol, 318.75 K	0.0148
in 2-ethoxyethanol, 323.65 K	0.0182
in 2-ethoxyethanol, 328.05 K	0.0212
in 2-ethoxyethanol, 333.15 K	0.0259
in 2-ethoxyethanol, 343.25 K	0.0352
in 2-ethoxyethanol, 348.35 K	0.042
in 2-ethoxyethanol, 353.15 K	0.0478
in THF, 293.25 K	0.151
in THF, 298.15 K	0.175
in THF, 304.35 K	0.2
in THF, 308.25 K	0.223
in THF, 314.25 K	0.253
in THF, 318.45 K	0.285
in THF, 323.15 K	0.315
in THF, 328.25 K	0.346
in acetone, 293.15 K	0.0295
in acetone, 296.45 K	0.0349
in acetone, 300.25 K	0.0423
in acetone, 304.35 K	0.0496
in acetone, 308.25 K	0.0588
in acetone, 314.25 K	0.0782
in acetone, 318.35 K	0.093
in acetone, 323.15 K	0.117
in acetonitrile, 298.25 K	0.004
in acetonitrile, 303.55 K	0.006
in acetonitrile, 308.25 K	0.0082
in acetonitrile, 313.35 K	0.0122
in acetonitrile, 318.35 K	0.017
in acetonitrile, 323.45 K	0.0243
in acetonitrile, 328.15 K	0.0332
in acetonitrile, 333.25 K	0.0457
in dichloromethane, 293.35 K	0.099
in dichloromethane, 295.95 K	0.111
in dichloromethane, 300.35 K	0.139
in dichloromethane, 303.15 K	0.158
in dichloromethane, 306.05 K	0.179
in dichloromethane, 310.35 K	0.219
in diethyl ether, 293.15 K	0.0101
in diethyl ether, 296.25 K	0.0122
in diethyl ether, 299.05 K	0.014
in diethyl ether, 300.35 K	0.0154
in diethyl ether, 303.15 K	0.0178
in diethyl ether, 306.05 K	0.0211
in ethanol, 298.25 K	0.0096
in ethanol, 300.95 K	0.0099
in ethanol, 303.25 K	0.0102
in ethanol, 308.15 K	0.011
in ethanol, 313.45 K	0.0119
in ethanol, 318.75 K	0.0129
in ethanol, 323.05 K	0.0136
in ethanol, 328.35 K	0.0147
in ethyl acetate, 298.15 K	0.0592
in ethyl acetate, 300.95 K	0.0655
in ethyl acetate, 303.25 K	0.0699
in ethyl acetate, 308.25 K	0.0829
in ethyl acetate, 313.25 K	0.0983
in ethyl acetate, 319.05 K	0.119
in ethyl acetate, 323.15 K	0.136
in ethyl acetate, 328.25 K	0.159
in n-heptane, 298.15 K	0.0035
in n-heptane, 303.45 K	0.0039
in n-heptane, 308.35 K	0.0044
in n-heptane, 313.05 K	0.0049
in n-heptane, 318.25 K	0.0056
in n-heptane, 323.35 K	0.0062
in n-heptane, 328.25 K	0.0069
in n-heptane, 333.15 K	0.0075
in toluene, 298.05 K	0.0572
in toluene, 300.95 K	0.065
in toluene, 303.35 K	0.0717
in toluene, 310.25 K	0.0904
in toluene, 314.45 K	0.106
in toluene, 318.65 K	0.123
in toluene, 323.55 K	0.15
in toluene, 327.95 K	0.173
in toluene, 333.15 K	0.209
in toluene, 338.25 K	0.246

O=[PH](O)c1ccccc1
Conditions	solubility (mole fraction)
in 2-ethoxyethanol, 288.15 K	0.124
in 2-ethoxyethanol, 293.85 K	0.136
in 2-ethoxyethanol, 298.25 K	0.148
in 2-ethoxyethanol, 303.45 K	0.165
in 2-ethoxyethanol, 313.15 K	0.205
in 2-ethoxyethanol, 318.25 K	0.227
in 2-ethoxyethanol, 323.65 K	0.239
in 2-ethoxyethanol, 328.25 K	0.259
in 2-ethoxyethanol, 333.45 K	0.283
in 2-ethoxyethanol, 338.35 K	0.308
in 2-ethoxyethanol, 343.25 K	0.344
in 2-ethoxyethanol, 348.25 K	0.372
in 2-ethoxyethanol, 353.25 K	0.397
in 2-ethoxyethanol, 358.55 K	0.434
in 2-ethoxyethanol, 363.15 K	0.459
in acetone, 293.35 K	0.0305
in acetone, 298.15 K	0.0448
in acetone, 303.55 K	0.0671
in acetone, 308.25 K	0.0879
in acetone, 313.45 K	0.124
in acetone, 318.25 K	0.186
in acetone, 323.35 K	0.256
in benzene, 299.15 K	0.054
in benzene, 303.65 K	0.0709
in benzene, 308.55 K	0.111
in benzene, 313.25 K	0.145
in benzene, 318.45 K	0.225
in benzene, 323.15 K	0.308
in benzene, 328.35 K	0.415
in benzene, 333.15 K	0.554
in chloroform, 293.15 K	0.134
in chloroform, 298.45 K	0.157
in chloroform, 303.25 K	0.186
in chloroform, 308.25 K	0.228
in chloroform, 313.15 K	0.269
in chloroform, 318.35 K	0.315
in chloroform, 323.25 K	0.357
in dichloromethane, 288.15 K	0.0292
in dichloromethane, 293.35 K	0.0386
in dichloromethane, 296.25 K	0.0458
in dichloromethane, 298.15 K	0.0528
in dichloromethane, 303.45 K	0.0709
in dichloromethane, 308.25 K	0.091
in ethanol, 283.25 K	0.0889
in ethanol, 288.65 K	0.112
in ethanol, 293.15 K	0.136
in ethanol, 298.35 K	0.168
in ethanol, 303.45 K	0.205
in ethanol, 308.25 K	0.245
in ethanol, 313.45 K	0.297
in ethanol, 318.55 K	0.356
in ethanol, 323.35 K	0.42
in ethyl acetate, 293.45 K	0.0144
in ethyl acetate, 298.15 K	0.0185
in ethyl acetate, 303.25 K	0.0275
in ethyl acetate, 313.45 K	0.0494
in ethyl acetate, 318.25 K	0.0661
in ethyl acetate, 328.35 K	0.107
in ethyl acetate, 333.25 K	0.136
in ethyl acetate, 338.55 K	0.174
in methanol, 293.55 K	0.173
in methanol, 298.15 K	0.215
in methanol, 303.75 K	0.28
in methanol, 308.35 K	0.344
in methanol, 313.45 K	0.429
in methanol, 318.25 K	0.526
in methanol, 323.65 K	0.655
in toluene, 293.15 K	0.0187
in toluene, 298.35 K	0.0282
in toluene, 303.45 K	0.0389
in toluene, 313.25 K	0.0652
in toluene, 318.15 K	0.0934
in toluene, 323.35 K	0.125
in toluene, 328.15 K	0.162
in toluene, 333.55 K	0.199
in toluene, 338.45 K	0.255
in toluene, 343.15 K	0.316
in toluene, 348.35 K	0.413
in water, 297.79 K	0.0095
in water, 300.25 K	0.0111
in water, 302.4 K	0.0129
in water, 305.22 K	0.0159
in water, 309.93 K	0.0218
in water, 312.84 K	0.0305
in water, 318.15 K	0.0433
in water, 323.35 K	0.0572
in water, 328.15 K	0.085
in water, 333.45 K	0.11
in water, 338.25 K	0.161
in water, 343.15 K	0.208

CP(=O)(O)c1ccccc1
Conditions	solubility (mole fraction)
in 2-ethoxyethanol, 298.15 K	0.252
in 2-ethoxyethanol, 303.15 K	0.289
in 2-ethoxyethanol, 313.25 K	0.348
in 2-ethoxyethanol, 318.15 K	0.397
in 2-ethoxyethanol, 323.35 K	0.441
in 2-ethoxyethanol, 328.25 K	0.472
in 2-ethoxyethanol, 333.15 K	0.519
in 2-ethoxyethanol, 338.45 K	0.587
in 2-ethoxyethanol, 343.35 K	0.639
in 2-ethoxyethanol, 348.35 K	0.697
in 2-ethoxyethanol, 353.15 K	0.751
in acetone, 293.15 K	0.0473
in acetone, 298.15 K	0.0609
in acetone, 303.25 K	0.0816
in acetone, 308.15 K	0.0995
in acetone, 313.35 K	0.127
in acetone, 318.15 K	0.165
in acetone, 323.25 K	0.204
in benzene, 293.25 K	0.0386
in benzene, 298.15 K	0.0541
in benzene, 303.15 K	0.0809
in benzene, 308.35 K	0.113
in benzene, 313.25 K	0.163
in benzene, 318.15 K	0.218
in benzene, 323.25 K	0.301
in benzene, 328.15 K	0.419
in benzene, 333.35 K	0.563
in chloroform, 293.15 K	0.112
in chloroform, 298.25 K	0.132
in chloroform, 303.15 K	0.156
in chloroform, 308.35 K	0.188
in chloroform, 313.15 K	0.214
in chloroform, 318.45 K	0.255
in chloroform, 323.15 K	0.288
in chloroform, 328.15 K	0.34
in dichloromethane, 288.55 K	0.0465
in dichloromethane, 293.65 K	0.0697
in dichloromethane, 296.15 K	0.0904
in dichloromethane, 298.35 K	0.104
in dichloromethane, 303.25 K	0.164
in dichloromethane, 308.35 K	0.235
in ethanol, 293.25 K	0.205
in ethanol, 298.15 K	0.266
in ethanol, 303.35 K	0.333
in ethanol, 308.25 K	0.39
in ethanol, 313.55 K	0.486
in ethanol, 318.45 K	0.614
in ethanol, 323.15 K	0.734
in ethanol, 328.25 K	0.872
in ethyl acetate, 288.35 K	0.0484
in ethyl acetate, 293.15 K	0.0621
in ethyl acetate, 298.25 K	0.075
in ethyl acetate, 303.45 K	0.0941
in ethyl acetate, 313.35 K	0.152
in ethyl acetate, 318.15 K	0.182
in ethyl acetate, 328.15 K	0.265
in ethyl acetate, 333.35 K	0.304
in ethyl acetate, 338.15 K	0.359
in ethyl acetate, 343.25 K	0.428
in methanol, 298.35 K	0.317
in methanol, 303.15 K	0.343
in methanol, 308.15 K	0.372
in methanol, 313.25 K	0.406
in methanol, 318.35 K	0.439
in methanol, 323.15 K	0.471
in methanol, 328.25 K	0.499
in toluene, 293.25 K	0.12
in toluene, 298.35 K	0.147
in toluene, 303.25 K	0.168
in toluene, 308.35 K	0.204
in toluene, 313.15 K	0.229
in toluene, 323.25 K	0.327
in toluene, 328.35 K	0.377
in toluene, 333.25 K	0.418
in toluene, 338.15 K	0.479
in toluene, 343.45 K	0.564
in water, 298.15 K	0.0154
in water, 303.35 K	0.0204
in water, 310.45 K	0.027
in water, 314.25 K	0.032
in water, 320.45 K	0.0414
in water, 324.15 K	0.0477
in water, 329.25 K	0.0579
in water, 333.65 K	0.0679
in water, 338.75 K	0.0865
in water, 343.45 K	0.0968
in water, 348.25 K	0.12

Source: BigSolDB 2.1
